Laboratory results published in US7964624B1, “Inhibitors of serine proteases” (priority 2005, dated 2011).

Target: T1, full-length hepatitis C viral protein NS3•4A (Hepatitis C virus genotype 1a, UniProt P27958)
T1 construct: hexa-histidine (N); made in house; host or cells: Sf9 insect cells (baculovirus, pVL1392)
Test: biochemical
Set-up: species or system HCV sub-type strain 1a
Details: Enzyme Assay 2 (HCV NS3 Peptide Cleavage Assay) activity, apparent Ki class

Compound | Ki [µM]
COc1c(C)cc(C2=NO[C@]3(C2)C[C@@H](C(=O)N[C@@H](CC2CC2)C(=O)C(N)=O)N(C(=O)[C@@H](NC(=O)CC2CCCCC2)C(C)(C)C)C3)cc1Cl [Compound 195] | < 0.1
CCC[C@H](NC(=O)[C@@H]1C[C@]2(CC(c3cccc(Cl)c3)=NO2)CN1C(=O)[C@@H](NC(=O)CC1CCCCC1)C1(OC)CC1)C(=O)C(=O)NC1CC1 [Compound 211] | < 0.1
CC(C)(C)[C@H](NC(=O)CC1CCCCCC1)C(=O)N1C[C@@]2(CC(c3cccc(Cl)c3)=NO2)C[C@H]1C(=O)N[C@@H](CC1CC1)C(=O)C(N)=O [Compound 219] | < 0.1
CCC[C@H](NC(=O)[C@@H]1C[C@]2(CC(c3cccc(Cl)c3)=NO2)CN1C(=O)[C@@H](NC(=O)CC1CCCCC1)C(C)(C)C)C(=O)C(=O)N1CC(OC[C@H]2CCCO2)C1 [Compound 238] | > 0.5
CCC[C@H](NC(=O)[C@@H]1C[C@]2(CC(c3cc(Cl)cc(OC)c3)=NO2)CN1C(=O)[C@@H](NC(=O)CC1CCCCC1)C(C)(C)C)C(=O)C(=O)NC1CC1 [Compound 250] | < 0.1
COc1cc(OC)c(C2=NO[C@]3(C2)C[C@@H](C(=O)N[C@@H](CC2CC2)C(=O)C(N)=O)N(C(=O)[C@@H](NC(=O)OC(C)(C)C)C(C)(C)C)C3)cc1Cl [Compound 264] | < 0.1
CCC[C@H](NC(=O)[C@@H]1C[C@]2(CC(c3cc(Cl)c(OC)cc3OC)=NO2)CN1C(=O)[C@@H](NC(=O)CC1(C)CCOCC1)C(C)(C)C)C(=O)C(=O)NC1CC1 [Compound 286] | < 0.1
CCC[C@H](NC(=O)[C@@H]1C[C@]2(CC(c3cc(Cl)c(OC)cc3OC)=NO2)CN1C(=O)[C@@H](NC(=O)CC(C)(C)C)C(C)(C)C)C(=O)C(=O)NC1CC1 [Compound 297] | < 0.1
CCC[C@H](NC(=O)[C@@H]1C[C@]2(CC(c3cc(F)cc4c3OCOC4)=NO2)CN1C(=O)[C@@H](NC(=O)CC1CCCCC1)C(C)(C)C)C(=O)C(=O)NC1CC1 [Compound 305] | 0.1 to 0.5
CCC[C@H](NC(=O)[C@@H]1C[C@]2(CC(c3cccc(Cl)c3)=NO2)CN1C(=O)[C@@H](NC(=O)CC1CC2CCC1C2)C1(OC)CC1)C(=O)C(=O)NC1CC1 (some centres unmarked) [Compound 346] | < 0.1
CCC[C@H](NC(=O)[C@@H]1C[C@]2(CC(c3cc(Cl)c(OC)cc3OC)=NO2)CN1C(=O)[C@@H](NC(=O)CC1(C)CCOCC1)C(C)(C)C)C(=O)C(=O)N1CCC1 [Compound 356] | < 0.1
CCC[C@H](NC(=O)[C@@H]1C[C@]2(CC(c3cccc(Cl)c3)=NO2)CN1C(=O)[C@@H](NC(=O)CC1CCCCC1)C(C)(C)C)C(=O)C(=O)N1CC(OC2CCOC2)C1 (some centres unmarked) [Compound 368] | 0.1 to 0.5
CCC[C@H](NC(=O)[C@@H]1C[C@]2(CC(c3cccc(Cl)c3)=NO2)CN1C(=O)[C@@H](NC(=O)OC1CCCC1)C(C)(C)C)C(=O)C(=O)NC1CC1 [Compound 369] | < 0.1
CCC[C@H](NC(=O)[C@@H]1C[C@]2(CC(c3cccc(Cl)c3)=NO2)CN1C(=O)Cc1ccc(OC(F)(F)F)cc1)C(=O)C(=O)NC1CC1 [Compound 380] | > 0.5
CCC[C@H](NC(=O)[C@@H]1C[C@]2(CC(c3cc(C)cc(Cl)c3)=NO2)CN1C(=O)[C@@H](NC(=O)CC1CCCCC1)C(C)(C)C)C(=O)C(=O)NC1CC1 [Compound 396] | < 0.1
CCC[C@H](NC(=O)[C@@H]1C[C@]2(CC(c3cc(C)c(OCC4CC4)c(C)c3)=NO2)CN1C(=O)[C@@H](NC(=O)CC1CCCCC1)C(C)(C)C)C(=O)C(=O)NC1CC1 [Compound 406] | < 0.1
CCC[C@H](NC(=O)[C@@H]1C[C@]2(CC(c3cc(Cl)c(OC)cc3OC)=NO2)CN1C(=O)[C@@H](NC(=O)CC1CC2CCC1C2)C(C)(C)C)C(=O)C(=O)NC1CC1 (some centres unmarked) [Compound 446] | < 0.1
C[C@@H]1CC(CC(=O)N[C@H](C(=O)N2C[C@@]3(CC(c4cccc(Cl)c4)=NO3)C[C@H]2C(=O)N[C@@H](CC2CC2)C(=O)C(N)=O)C(C)(C)C)C[C@@H](C)O1 (some centres unmarked) [Compound 468] | < 0.1
CC(C)(C)[C@H](NC(=O)[C@@H]1C[C@H]1c1ccccc1)C(=O)N1C[C@@]2(CC(c3cccc(Cl)c3)=NO2)C[C@H]1C(=O)N[C@@H](CC1CC1)C(=O)C(N)=O [Compound 485] | < 0.1
CCC[C@H](NC(=O)[C@@H]1C[C@]2(CC(c3cc(C)c(OCC)c(C)c3)=NO2)CN1C(=O)[C@@H](NC(=O)CC1CCCCC1)C(C)(C)C)C(=O)C(=O)NC1CC1 [Compound 513] | < 0.1
CNC(=O)C(=O)[C@H](CC1CC1)NC(=O)[C@@H]1C[C@]2(CC(c3cccc(Cl)c3)=NO2)CN1C(=O)[C@@H](NC(=O)CC1CCCCC1)C(C)(C)C [Compound 522] | < 0.1
COc1cc(OC)c(C2=NO[C@]3(C2)C[C@@H](C(=O)N[C@@H](CC2CC2)C(=O)C(N)=O)N(C(=O)[C@@H](NC(=O)CC2(C)CCOCC2)C(C)(C)C)C3)cc1Cl [Compound 529] | < 0.1
CCC[C@H](NC(=O)[C@@H]1C[C@]2(CC(c3ccc(OCC)c(Cl)c3)=NO2)CN1C(=O)[C@@H](NC(=O)CC1CCCCC1)C(C)(C)C)C(=O)C(=O)NC1CC1 [Compound 556] | < 0.1
COc1cc(OC)c(C2=NO[C@]3(C2)C[C@@H](C(=O)N[C@@H](CC2CC2)C(=O)C(N)=O)N(C(=O)[C@@H](NC(=O)CC2CCCCC2)C(C)(C)C)C3)cc1Cl [Compound 562] | < 0.1

Compound | Ki [µM]
CCC[C@H](NC(=O)[C@@H]1C[C@]2(CC(c3cc(Cl)c(OC)cc3OC)=NO2)CN1C(=O)[C@@H](NC(=O)OC(C)(C)C)C(C)(C)C)C(=O)C(=O)N1CCC1 [Compound 581] | < 0.1
CCC[C@H](NC(=O)[C@@H]1C[C@]2(CC(c3cccc4cccnc34)=NO2)CN1C(=O)[C@@H](NC(=O)CC1CCCCCC1)C(C)(C)C)C(=O)C(=O)NC1CC1 [Compound 595] | < 0.1
CCC[C@H](NC(=O)[C@@H]1C[C@]2(CC(c3cccc4cccnc34)=NO2)CN1C(=O)[C@@H](NC(=O)CC1CCCCCC1)C(C)(C)C)C(=O)C(=O)NC [Compound 596] | 0.1 to 0.5
CCC[C@H](NC(=O)[C@@H]1C[C@]2(CC(c3ccc(N(C)C)c(Cl)c3)=NO2)CN1C(=O)[C@@H](NC(=O)CC1CCCCC1)C(C)(C)C)C(=O)C(=O)NC1CC1 [Compound 597] | 0.1 to 0.5
CCC[C@H](NC(=O)[C@@H]1C[C@]2(CC(c3cccc(NC(=O)C(Cl)Cl)c3)=NO2)CN1C(=O)[C@@H](NC(=O)CC1CCCCC1)C(C)(C)C)C(=O)C(=O)NC1CC1 [Compound 598] | 0.1 to 0.5
CCC[C@H](NC(=O)[C@@H]1C[C@@]2(CC(c3cc(Cl)c4c(c3)CCCN4C)=NO2)CN1C(=O)[C@@H](NC(=O)OC(C)(C)C)C(C)(C)C)C(=O)C(=O)NC1CC1 [Compound 600] | 0.1 to 0.5
CCC[C@H](NC(=O)[C@@H]1C[C@]2(CC(c3cc(Cl)c4c(c3)CCCN4C)=NO2)CN1C(=O)[C@@H](NC(=O)OC(C)(C)C)C(C)(C)C)C(=O)C(=O)NC1CC1 [Compound 601] | < 0.1
CC(C)(C)[C@H](NC(=O)CC1CCCCCC1)C(=O)N1C[C@@]2(CC(c3cccc4cccnc34)=NO2)C[C@H]1C(=O)N[C@@H](CC1CC1)C(=O)C(N)=O [Compound 602] | < 0.1
CC(C)(C)[C@H](NC(=O)CC1CCCCC1)C(=O)N1C[C@@]2(CC(c3cccc4cccnc34)=NO2)C[C@H]1C(=O)N[C@@H](CC1CC1)C(=O)C(N)=O [Compound 603] | < 0.1
CCC[C@H](NC(=O)[C@@H]1C[C@]2(CC(c3cc(Cl)c(OC)cc3C)=NO2)CN1C(=O)[C@@H](NC(=O)CC1CCCCC1)C(C)(C)C)C(=O)C(=O)NC [Compound 604] | 0.1 to 0.5
CCC[C@H](NC(=O)[C@@H]1C[C@]2(CC(c3cc(Cl)c(OC)cc3C)=NO2)CN1C(=O)[C@@H](NC(=O)CC1CCCCCC1)C(C)(C)C)C(=O)C(=O)NC1CC1 [Compound 606] | 0.1 to 0.5
CCC[C@H](NC(=O)[C@@H]1C[C@]2(CC(c3cc(Cl)c(OC)cc3C)=NO2)CN1C(=O)[C@@H](NC(=O)CC(C)(C)C)C(C)(C)C)C(=O)C(=O)NC [Compound 607] | 0.1 to 0.5
CCC[C@H](NC(=O)[C@@H]1C[C@]2(CC(c3cc(Cl)c(OC)cc3C)=NO2)CN1C(=O)[C@@H](NC(=O)CC(C)(C)C)C(C)(C)C)C(=O)C(=O)NC1CC1 [Compound 608] | 0.1 to 0.5
CCC[C@H](NC(=O)[C@@H]1C[C@]2(CC(c3ccc(F)c(Cl)c3)=NO2)CN1C(=O)[C@@H](NC(=O)CC1CCCCC1)C(C)(C)C)C(=O)C(=O)NC [Compound 609] | < 0.1
CCC[C@H](NC(=O)[C@@H]1C[C@]2(CC(c3ccc(F)c(Cl)c3)=NO2)CN1C(=O)[C@@H](NC(=O)CC1CCCCCC1)C(C)(C)C)C(=O)C(=O)NC [Compound 610] | < 0.1
CCC[C@H](NC(=O)[C@@H]1C[C@]2(CC(c3ccc(F)c(Cl)c3)=NO2)CN1C(=O)[C@@H](NC(=O)CC1CCCCCC1)C(C)(C)C)C(=O)C(=O)NC1CC1 [Compound 611] | < 0.1
CCC[C@H](NC(=O)[C@@H]1C[C@]2(CC(c3ccc(F)c(Cl)c3)=NO2)CN1C(=O)[C@@H](NC(=O)CC(C)(C)C)C(C)(C)C)C(=O)C(=O)NC [Compound 612] | < 0.1
CCC[C@H](NC(=O)[C@@H]1C[C@]2(CC(c3ccc(F)c(Cl)c3)=NO2)CN1C(=O)[C@@H](NC(=O)CC(C)(C)C)C(C)(C)C)C(=O)C(=O)NC1CC1 [Compound 613] | < 0.1
CCC[C@H](NC(=O)[C@@H]1C[C@]2(CC(c3cc(C)c(OC)cc3OC)=NO2)CN1C(=O)[C@@H](NC(=O)CC1CCCCC1)C(C)(C)C)C(=O)C(=O)NC1CC1 [Compound 614] | < 0.1
CCC[C@H](NC(=O)[C@@H]1C[C@]2(CC(c3cc(C)c(OC)cc3C)=NO2)CN1C(=O)[C@@H](NC(=O)CC1CCCCC1)C(C)(C)C)C(=O)C(=O)NC1CC1 [Compound 615] | 0.1 to 0.5
CNC(=O)C(=O)[C@H](CC1CC1)NC(=O)[C@@H]1C[C@]2(CC(c3cc(Cl)c(OC)cc3OC)=NO2)CN1C(=O)[C@@H](NC(=O)CC1CCCCCC1)C(C)(C)C [Compound 616] | < 0.1
CNC(=O)C(=O)[C@H](CC1CC1)NC(=O)[C@@H]1C[C@]2(CC(c3cccc(Cl)c3)=NO2)CN1C(=O)[C@@H](NC(=O)CC1CCCCC1)C1(OC)CC1 [Compound 617] | 0.1 to 0.5
CCC[C@H](NC(=O)[C@@H]1C[C@]2(CC(c3cc(Cl)c(OC)cc3OC)=NO2)CN1C(=O)[C@@H](NC(=O)CC1CCCCC1)C(C)(C)C)C(=O)C(N)=O [Compound 618] | < 0.1
